According to patent US12673041B2, “4-aminobut-2-enamide derivatives and salt thereof” (TAIHO PHARMACEUTICAL CO., LTD., priority 2019, dated 2026):

Legend:
[1] = biological target: T1, GMPPNP-bound KRAS G12C protein and cRAF RAS-binding domain (cRAF-RBD) (Homo sapiens, UniProt P01116, G12C); test: Inhibitory activity on interaction between KRAS G12C and cRAF (Alpha technology); format: biochemical; conditions: GMPPNP-bound KRAS G12C incubated with compound at 25° C. for 1 hour, then cRAF-RBD, Alpha signal; read-out: IC50
T1 construct: made in house; host or cells: E. coli
Protocol: Interaction between recombinant K-Ras4B G12C mutant protein (amino acids 1-169, SEQ ID NO:2) and cRAF RAS-binding domain (cRAF-RBD, amino acids 50-132, Jena Biosciences GmbH) was measured using Alpha technology (PerkinElmer Inc.).
Recombinant KRAS G12C protein with an N-terminal His-tag was expressed in E. coli and purified by affinity chromatography. To prepare GTP-bound form and GDP-bound form of KRAS G12C protein, 50 μM KRAS G12C protein was incubated with 1 mM GMPPNP (Guanosine-5′-[(β,γ)-imido]triphosphate, Tetralithium salt) (Jena Bioscience GmbH) and 1 mM GDP, respectively, in a loading buffer (20 mM Tris-HCl (pH 7.5), 50 mM NaCl, 1 mM DTT and 2.5 mM EDTA) for 1 hour on ice. After the incubation, MgCl2 was added to a final concentration of 10 mM, followed by incubation at room temperature for 30 minutes. The mixture was allowed to pass through a NAP-5 column to remove free nucleotides and purified, and the resultant nucleotide-bound KRAS G12C protein was used for compound evaluation.
For the measurement of the inhibitory activity of compounds on interaction between KRAS G12C and cRAF-RBD, GMPPNP-bound KRAS G12C protein was incubated with various concentrations of compound in a reaction buffer (20 mM Tris-HCl (pH 7.5), 100 mM NaCl, 1 mM MgCl2, 1 mM TCEP, 0.1% Tween 20) at 25° C. for 1 hour. After the incubation, recombinant cRAF-RBD and Alpha detection reagents were added and incubated at room temperature for 1.5 hours for binding. Interaction 5 of KRAS G12C and cRAF-RBD was monitored by measuring Alpha signal. Inhibition % was calculated using the signal from the reaction without test compound (DMSO control) as 0% inhibition and the signal from the reaction using GDP-bound KRAS G12C in place of GMPPNP-bound KRAS G12C as 100% inhibition. IC50 values were calculated from dose titration curve using curve fitting by XLfit software (IDBS).

[2] = biological target: Gppcp-bound recombinant K-Ras4B G12C mutant protein (amino acids 1-169, C51S/C80L/C118S) (Homo sapiens, UniProt P01116, C118S/C51S/C80L/G12C); test: KRASG12C binding assay (LC-MS compound binding rate); conditions: test compound final concentration 0.5 μM, 25° C., 1 hour
Protocol: As test compounds for the KRASG12C binding assay, the compounds obtained in the “Preparation of Compounds” section were used. Sample solutions each containing a test compound were prepared in the form of a 10 mM DMSO solution.
Gppcp-bound recombinant K-Ras4B G12C mutant protein (amino acids 1-169, C51S/C80L/C118S, SEQ ID NO:1) was diluted with a buffer (1×TBS, 0.1 mM TCEP, 0.25 mM MgCl2, 50 μM Gppcp) to prepare a 50 nM protein solution. K-Ras4B is the major splicing variant of K-Ras. Amino acid sequence of residues 1 to 150 including the compounds' binding region of K-Ras4B is exactly same as that of K-Ras4A, the other splicing variant (Oncotarget. 2016 Jul. 19; 7(29): 46717-46733). A sample solution containing 10 mM test compound was diluted ten-fold with DMSO to make a 1 mM sample solution, and then diluted twenty-fold with DMSO to make a 50 μM sample solution. 1 μL of a 50 μM sample solution was added to 100 μL of a 50 nM protein solution to adjust the final concentration of a test compound to be 0.5 μM in the mixture. The mixtures were stored in an incubator at 25° C. for 1 hour, and 10 μL of a 1×TBS solution containing 2% formic acid was added to stop the reaction, followed by LC-MS measurement. LC-MS measurement was performed using Xevo G2-S Q-Tof manufactured by Waters, and reverse-phase chromatography was performed with a desalting column. A mass spectrum of positive ions was obtained by electrospray. For a mass spectrum, a spectrum of polyvalent ions was collectively converted to a molecular weight by using OpenLynx software by the MaxEnt technique, and a compound binding rate was calculated from the ratio of the signal intensity of a peak that corresponds to the molecular weight of the protein to the signal intensity of a peak that corresponds to the molecular weight of the protein conjugated with the compound.
The binding assay of the test compounds was conducted at a final concentration of 0.5 μM. A binding rate of 80% or more is rated “A”, a binding rate of 60% or more and less than 80% is rated “B”, a binding rate of 40% or more and less than 60% is rated “C”, a binding rate of 20% or more and less than 40% is rated “D”, and a binding rate of less than 20% is rated “E”. N.D.=not determined. Binding rate % is the ratio of KRAS signal intensity at the molecular weight of one molecule adduct to the sum of all the KRAS signal intensity (unbound form and adducts) in mass spectrum.
Thus, binding rate 100% means that only the one molecule adduct was observed without any unbound KRAS.

Row | Structure (SMILES) | IC50 [1] [nM] | binding rate [2]
1 | COCc1nc2cc(-c3cccc(NC(=O)c4ccc(NC(=O)/C=C/CN[C@H]5CC[C@H](OC)CC5)c(C#N)c4)c3)c(C(F)(F)F)cc2n1C [Example 21, 3-cyano-4-((E)-4-(((1r,4r)-4-methoxycyclohexyl)amino)but-2-enamido)-N-(3-(2-(methoxymethyl)-1-methyl-6-(trifluoromethyl)-1H-benzo[d]imidazol-5-yl)phenyl)benzamide] | 220 | A (A binding rate of 80% or more is rated “A”)
2 | COCc1nc2cc(-c3cccc(NC(=O)c4ccc(NC(=O)/C=C/CNC5C[C@H]6CC[C@@H](C5)O6)c(C#N)c4)c3)c(C(F)(F)F)cc2n1C (stereo partly drawn) [Example 22, 4-((E)-4-(((1R,5S)-8-oxabicyclo[3.2.1]octan-3-yl)amino)but-2-enamido)-3-cyano-N-(3-(2-(methoxymethyl)-1-methyl-6-(trifluoromethyl)-1H-benzo[d]imidazol-5-yl)phenyl)benzamide] | 140 | A (A binding rate of 80% or more is rated “A”)
3 | CO[C@H](C)c1nc2cc(-c3cccc(NC(=O)c4ccc(NC(=O)/C=C/CN[C@H]5CC[C@H](OC)CC5)c(C#N)c4)c3)c(C(F)(F)F)cc2n1C [Example 23, 3-cyano-4-((E)-4-(((1r,4r)-4-methoxycyclohexyl)amino)but-2-enamido)-N-(3-(2-((R)-1-methoxyethyl)-1-methyl-6-(trifluoromethyl)-1H-benzo[d]imidazol-5-yl)phenyl)benzamide] | 220 | A (A binding rate of 80% or more is rated “A”)
4 | COCc1nc2cc(-c3cccc(NC(=O)c4ccc(NC(=O)/C=C/CNC5(C)CCC6(CC5)OCCO6)c(C#N)c4)c3)c(C(F)(F)F)cc2n1C [Example 24, (E)-3-cyano-N-(3-(2-(methoxymethyl)-1-methyl-6-(trifluoromethyl)-1H-benzo[d]imidazol-5-yl)phenyl)-4-(4-((8-methyl-1,4-dioxaspiro[4.5]decan-8-yl)amino)but-2-enamido)benzamide] | 150 | A (A binding rate of 80% or more is rated “A”)
5 | COCc1nc2cc(-c3cccc(NC(=O)c4ccc(NC(=O)/C=C/CNC5CC6C(C5)C6(F)F)c(C#N)c4)c3)c(C(F)(F)F)cc2n1C (stereo not shown) [Example 25, (E)-3-cyano-4-(4-((6,6-difluorobicyclo[3.1.0]hexan-3-yl)amino)but-2-enamido)-N-(3-(2-(methoxymethyl)-1-methyl-6-(trifluoromethyl)-1H-benzo[d]imidazol-5-yl)phenyl)benzamide] | 250 | A (A binding rate of 80% or more is rated “A”)
6 | COCc1nc2cc(-c3cccc(NC(=O)c4ccc(NC(=O)/C=C/CNC5CCC5)c(C#N)c4)c3)c(C(F)(F)F)cc2n1C [Example 26, (E)-3-cyano-4-(4-(cyclobutylamino)but-2-enamido)-N-(3-(2-(methoxymethyl)-1-methyl-6-(trifluoromethyl)-1H-benzo[d]imidazol-5-yl)phenyl)benzamide] | 420 | C (a binding rate of 40% or more and less than 60% is rated “C”)
7 | COCc1nc2cc(-c3cccc(NC(=O)c4ccc(NC(=O)/C=C/CNC5CCCCC5)c(C#N)c4)c3)c(C(F)(F)F)cc2n1C [Example 27, (E)-3-cyano-4-(4-(cyclohexylamino)but-2-enamido)-N-(3-(2-(methoxymethyl)-1-methyl-6-(trifluoromethyl)-1H-benzo[d]imidazol-5-yl)phenyl)benzamide] | 350 | B (a binding rate of 60% or more and less than 80% is rated “B”)
8 | CO[C@H]1C[C@H](NC/C=C/C(=O)Nc2ccc(C(=O)Nc3cccc(-c4cc5nc6n(c5cc4C(F)(F)F)CCC6)c3)cc2C#N)C1 [Example 28, 3-cyano-4-((E)-4-(((1r,3r)-3-methoxycyclobutyl)amino)but-2-enamido)-N-(3-(7-(trifluoromethyl)-2,3-dihydro-1H-benzo[d]pyrrolo[1,2-a]imidazol-6-yl)phenyl)benzamide] | 100 | A (A binding rate of 80% or more is rated “A”)
9 | CO[C@H]1CC[C@H](NC/C=C/C(=O)Nc2ccc(C(=O)c3ccc4c(-c5cc6ncn(C)c6cc5C(F)(F)F)cccn34)cc2)CC1 [Example 39, (E)-4-(((1r,4r)-4-methoxycyclohexyl)amino)-N-(4-(8-(1-methyl-6-(trifluoromethyl)-1H-benzo[d]imidazol-5-yl)indolizine-3-carbonyl)phenyl)but-2-enamide] | 300 | A (A binding rate of 80% or more is rated “A”)
10 | Cn1cnc2cc(-c3cccn4c(C(=O)c5ccc(NC(=O)/C=C/[C@H]6CCCN6)c(C#N)c5)ccc34)c(C(F)(F)F)cc21 [Example 42, (R,E)-N-(2-cyano-4-(8-(1-methyl-6-(trifluoromethyl)-1H-benzo[d]imidazol-5-yl)indolizine-3-carbonyl)phenyl)-3-(pyrrolidin-2-yl)acrylamide] | 360 | D (a binding rate of 20% or more and less than 40% is rated “D”)

Further lines, with some results ahead:

Row | IC50 [1] [nM] | Structure (SMILES) | binding rate [2]
11 | 200 | COc1ccccc1-c1cccn2c(C(=O)c3ccc(NC(=O)/C=C/CN[C@H]4CC[C@H](OC)CC4)c(C#N)c3)ccc12 [Example 40, (E)-N-(2-cyano-4-(8-(2-methoxyphenyl)indolizine-3-carbonyl)phenyl)-4-(((1r,4r)-4-methoxycyclohexyl)amino)but-2-enamide] | B (a binding rate of 60% or more and less than 80% is rated “B”)
12 | 170 | COc1cccc(F)c1-c1cccn2c(C(=O)c3ccc(NC(=O)/C=C/CN[C@H]4CC[C@H](OC)CC4)c(C#N)c3)ccc12 [Example 43, (E)-N-(2-cyano-4-(8-(2-fluoro-6-methoxyphenyl)indolizine-3-carbonyl)phenyl)-4-(((1r,4r)-4-methoxycyclohexyl)amino)but-2-enamide] | A (A binding rate of 80% or more is rated “A”)
13 | 320 | CO[C@H]1CC[C@H](NC/C=C/C(=O)Nc2ccc(C(=O)c3ccc4c(-c5ccccc5Cl)cccn34)cc2C#N)CC1 [Example 45, (E)-N-(4-(8-(2-chlorophenyl)indolizine-3-carbonyl)-2-cyanophenyl)-4-(((1r,4r)-4-methoxycyclohexyl)amino)but-2-enamide] | B (a binding rate of 60% or more and less than 80% is rated “B”)
14 | 170 | CO[C@H]1CC[C@H](NC/C=C/C(=O)Nc2ccc(C(=O)c3ccc4c(-c5c(O)cccc5F)cccn34)cc2C#N)CC1 [Example 46, (E)-N-(2-cyano-4-(8-(2-fluoro-6-hydroxyphenyl)indolizine-3-carbonyl)phenyl)-4-(((1r,4r)-4-methoxycyclohexyl)amino)but-2-enamide] | A (A binding rate of 80% or more is rated “A”)
